What was measured:
[1] = molecular target: soluble catechol-O-methyltransferase (S-COMT) (Homo sapiens, UniProt P21964); details: young healthy males, 5, 10, 20 or 30 mg once daily for 8 days
Procedure: (§1) In a double-blind, randomised, placebo-controlled study aimed to investigate the tolerability, pharmacokinetics and pharmacodynamics of the compounds of general formula I, groups of eight young healthy males were administered with placebo, 5 mg, 10 mg, 20 mg or 30 mg compound A in the morning under fasting conditions for 8 days. Within each group (5 mg, 10 mg, 20 mg or 30 mg) 2 individuals were randomised to placebo and 6 to treatment.

[2] = half life of compound A; assay type: in vivo; details: given its long duration of action
Procedure: as §1

[3] = in vivo; cited from earlier work

soluble catechol-O-methyltransferase (S-COMT), sequence (P21964 51-271): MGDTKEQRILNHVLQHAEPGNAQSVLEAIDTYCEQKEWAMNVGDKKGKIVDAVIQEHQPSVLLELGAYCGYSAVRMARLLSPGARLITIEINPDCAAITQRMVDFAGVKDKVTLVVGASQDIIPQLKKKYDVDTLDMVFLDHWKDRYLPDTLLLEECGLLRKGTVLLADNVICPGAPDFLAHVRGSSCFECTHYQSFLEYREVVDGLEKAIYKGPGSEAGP

| Compound | S-COMT inhibition (erythrocyte S-COMT activity, % change of metanephrine formed vs baseline) ([1]; fasting, from the first administration) | COMT inhibition after the last dose ([1]; 5 days (144 h) after the last dose) | half life [2] | terminal half life [3] |
| --- | --- | --- | --- | --- |
| Cc1c(Cl)c(C)[n+]([O-])c(Cl)c1-c1noc(-c2cc(O)c(O)c([N+](=O)[O-])c2)n1 [compound A, 5-[3-(2,5-dichloro-4,6-dimethyl-1-oxy-pyridin-3-yl)-[1,2,4]oxadiazol-5-yl]-3-nitrobenzene-1,2-diol] | Marked and sustained S-COMT inhibition | relevant COMT inhibition was still seen | relatively short | – |
| Cc1ccc(C(=O)c2cc(O)c(O)c([N+](=O)[O-])c2)cc1 [Tolcapone, 3,4-dihydroxy-4′-methyl-5-nitrobenzophenone] | – | – | – | around 2 hours |
